This is an account of results in patent publication US7741346B2, “Angiogenesis inhibitor” (Santen Pharmaceutical Co., Ltd., priority 2001, dated 2010).

On to `O=C(NCCCc1ccncc1)N1CCOCC1` [Compound No. 1-6, N-[3-(4-Pyridyl)propyl]-4-morpholinecarboxamide], for which the melting point fell in the range of 94 to 98 °C. Compound `O=C(NCCCc1ccncc1)N(CCC12CC3CC(CC(C3)C1)C2)CCC12CC3CC(CC(C3)C1)C2` [Compound No. 1-56, 1,1-Bis[2-(1-adamantyl)ethyl]-3-[3-(4-pyridyl)propyl]urea] registered a melting point of 80 °C. The same measure for `O=C(NCCCc1ccncc1)N(CCC12CC3CC(CC(C3)C1)C2)CC1CCCC1` [Compound No. 1-21, 1-[2-(1-Adamantyl)ethyl]-1-cyclopentylmethyl-3-[3-(4-pyridyl)propyl]urea]: 155 to 158 °C; for `CCCCN(CCCC12CC3CC(CC(C3)C1)C2)C(=O)NCCCc1ccncc1` [Compound No. 1-122, 1-[3-(1-Adamantyl)propyl]-1-butyl-3-[3-(4-pyridyl)propyl]urea]: 79.8 to 80.4 °C; for `CCCN(CCC12CC3CC(CC(C3)C1)C2)C(=O)NCCCc1ccncc1` [Compound No. 1-16, 1-[2-(1-Adamantyl)ethyl]-1-propyl-3-[3-(4-pyridyl)propyl]urea]: 99 to 103 °C. The figure for `CC(C)=CCN(CCC12CC3CC(CC(C3)C1)C2)C(=O)NCCCc1ccncc1` [Compound No. 1-31, 1-[2-(1-Adamantyl)ethyl]-1-(3-methyl-2-butenyl)-3-[3-(4-pyridyl)propyl]urea] is 93 to 96 °C; for `CCCCCN(CCC12CC3CC(CC(C3)C1)C2)C(=O)NCCC(C)c1ccncc1` (centres unmarked) [Compound No. 1-104, 1-[2-(1-Adamantyl)ethyl]-1-pentyl-3-[3-(4-pyridyl)butyl]urea] it is 93 to 98 °C.

In turn, `O=C(NCCCc1ccncc1)N(CCCCC(F)(F)F)CCC12CC3CC(CC(C3)C1)C2` [Compound No. 1-106, 1-[2-(1-Adamantyl)ethyl]-3-[3-(4-pyridyl)propyl]-1-(5,5,5-trifluoropentyl)urea] returned a melting point of 116.9 to 118.9 °C. Compound `CCCCCCCCCCN(CCC12CC3CC(CC(C3)C1)C2)C(=O)NCCCc1ccncc1` [Compound No. 1-32, 1-[2-(1-Adamantyl)ethyl]-1-decyl-3-[3-(4-pyridyl)propyl]urea] came in with a melting point of 75 to 76 °C.

As for `CN(C)CCN(CCC12CC3CC(CC(C3)C1)C2)C(=O)NCCCc1ccncc1` [Compound No. 1-15, 1-[2-(1-Adamantyl)ethyl]-1-[2-(dimethylamino)ethyl]-3-[3-(4-pyridyl)propyl]urea], the melting point was in the range of 104 to 106.5 °C. The same measure for `CCCCCN(CCC12CC3CC(CC(C3)C1)C2)C(=O)NCCNc1ccncc1` [Compound No. 1-126, 1-[2-(1-Adamantyl)ethyl]-1-pentyl-3-[2-(4-pyridylamino)ethyl]urea]: 133.9 to 134.5 °C.

With `CCCCCN(CCC12CC3CC(CC(C3)C1)C2)C(=O)NCc1ccccn1` [Compound No. 1-72, 1-[2-(1-Adamantyl)ethyl]-1-pentyl-3-(2-pyridyl)methylurea], the melting point lay in the range of 87.5 to 92 °C. The figure for `CCCCCN(CCC12CC3CC(CC(C3)C1)C2)C(=O)NCC(CC)Cc1ccncc1` (centres unmarked) [Compound No. 1-108, 1-[2-(1-Adamantyl)ethyl]-1-pentyl-3-[2-(4-pyridylmethyl)butyl]urea] is 72 to 77 °C; for `CCCCCN(CCC12CC3CC(CC(C3)C1)C2)C(=O)NCc1cccnc1` [Compound No. 1-73, 1-[2-(1-Adamantyl)ethyl]-1-pentyl-3-(3-pyridyl)methylurea] it is 88.5 to 101.5 °C.

`CCCCCN(CCC12CC3CC(CC(C3)C1)C2)C(=O)NCC(Cc1ccncc1)Cc1ccncc1` [Compound No. 1-110, 1-[2-(1-Adamantyl)ethyl]-3-[2,2-bis(4-pyridylmethyl)ethyl]-1-pentylurea] came in with a melting point of 124 to 136 °C.

`CN(CCN(CCC12CC3CC(CC(C3)C1)C2)C(=O)NCCCc1ccncc1)S(C)(=O)=O` [Compound No. 10-4, 1-[2-(1-Adamantyl)ethyl]-1-[2-[N-methyl-N-(methylsulfonyl)amino]ethyl]-3-[3-(4-pyridyl)propyl]urea] had a melting point of 164.9 to 167.2 °C. For `CCCN(CC(=O)NC12CC3CC(CC(C3)C1)C2)C(=O)NCCCc1ccncc1` [Compound No. 1-132, 1-(1-Adamantyl)aminocarbonylmethyl-1-propyl-3-[3-(4-pyridyl)propyl]urea], the melting point fell in the range of 132 to 132.5 °C. The same measure for `CCN(CCC12CC3CC(CC(C3)C1)C2)C(=O)NCCCc1ccncc1` [Compound No. 1-41, 1-[2-(1-Adamantyl)ethyl]-1-ethyl-3-[3-(4-pyridyl)propyl]urea]: 106 to 115 °C; for `Cl.O=C(NCc1ccncc1)N(CCC1CCCCC1)Cc1cccs1`: 161.8 to 164.4 °C. `CCCN(CCCC12CC3CC(CC(C3)C1)C2)C(=O)NCCCc1ccncc1.O=P(O)(O)O` had a melting point of 148 to 149 °C. Consider `CCCCCN(CCC1CCCCC1)C(=O)NCc1ccncc1` [Compound No. 1-52, 1-(2-Cyclohexylethyl)-1-pentyl-3-(4-pyridyl)methylurea], for which the melting point fell in the range of 64.7 to 65.8 °C. The same measure for `O=C(NCCCc1ccncc1)N(CCC12CC3CC(CC(C3)C1)C2)C1CCCC1` [Compound No. 1-70, 1-[2-(1-Adamantyl)ethyl]-1-cyclopentyl-3-[3-(4-pyridyl)propyl]urea]: 135.5 to 137.5 °C. The figure for `O=C(NCCCc1ccncc1)N(CCCC(F)(F)F)CCC12CC3CC(CC(C3)C1)C2` [Compound No. 1-105, 1-[2-(1-Adamantyl)ethyl]-3-[3-(4-pyridyl)propyl]-1-(4,4,4-trifluorobutyl)urea] is 142.6 to 145 °C. The same measure for `CN(CCN(CCC12CC3CC(CC(C3)C1)C2)C(=O)NCCCc1ccncc1)C(=O)CC(C)(C)C` [Compound No. 10-6, 1-[2-(1-Adamantyl)ethyl]-1-[2-[N-(3,3-dimethylbutyryl)-N-methylamino]ethyl]-3-[3-(4-pyridyl)propyl]urea]: 101.4 to 102.4 °C; for `CCCCCN(CCC12CC3CC(CC(C3)C1)C2)C(=O)NCCCc1cc[n+]([O-])cc1` [Compound No. 16-1, 4-[3-[3-[2-(1-Adamantyl)ethyl]-3-pentylureido]propyl]pyridine N-oxide]: 97.8 to 127 °C.

`O=C(NCCCc1ccncc1)N(CCCc1ccccc1)C(c1ccccc1)c1ccccc1` [Compound No. 1-93, 1-Diphenylmethyl-1-(3-phenylpropyl)-3-[3-(4-pyridyl)propyl]urea] showed a melting point of 123 to 124.8 °C. For `Cl.Cl.NN(CCC12CC3CC(CC(C3)C1)C2)C(=O)NCCCc1ccncc1`, the melting point is ~ 100 °C.

As for `CC(CNC(=O)N(CCC(F)(F)F)CCC12CC3CC(CC(C3)C1)C2)Cc1ccncc1` (centres unmarked) [Compound No. 1-117, 1-[2-(1-Adamantyl)ethyl]-3-[2-methyl-3-(4-pyridyl)propyl]-1-(3,3,3-trifluoropropyl)urea], the melting point lay in the range of 81.1 to 84.1 °C. The figure for `CN(CCN(CCC12CC3CC(CC(C3)C1)C2)C(=O)NCCCc1ccncc1)C(=O)OC(C)(C)C(Cl)(Cl)Cl` [Compound No. 10-10, 1-[2-(1-Adamantyl)ethyl]-1-[2-[N-(1,1-dimethyl-2,2,2-trichloroethoxycarbonyl)-N-methylamino}ethyl]-3-[3-(4-pyridyl)propyl]urea] is 47 to 52 °C; for `O=C(NCCCc1ccncc1)N1CCc2ccccc2C1` [Compound No. 1-5, N-[3-(4-Pyridyl)propyl]-1,2,3,4-tetrahydroisoquinoline-2-carboxamide] it is 76 to 79 °C. The figure for `O=C(N(CCCc1ccncc1)Cc1ccccc1)N(CCCc1ccccc1)C1CCCCC1` [Compound No. 1-60, 1-Cyclohexyl(phenyl)methyl-1-(3-phenylpropyl)-3-[3-(4-pyridyl)propyl]urea] is 107 to 112 °C; for `COCCN(CCC12CC3CC(CC(C3)C1)C2)C(=O)NCCCc1ccncc1` [Compound No. 1-18, 1-[2-(1-Adamantyl)ethyl]-1-(2-methoxyethyl)-3-[3-(4-pyridyl)propyl]urea] it is 101.5 to 104.5 °C; for `CCCCCN(CCC12CC3CC(CC(C3)C1)C2)C(=O)NCCCc1cccnc1` [Compound No. 1-84, 1-[2-(1-Adamantyl)ethyl]-1-pentyl-3-[3-(3-pyridyl)propyl]urea] it is 99.9 to 105.2 °C. The same measure for `CCCCCN(CCC12CC3CC(CC(C3)C1)C2)C(=O)NC[C@@H]1C[C@@H]1c1ccncc1` (relative stereo) [Compound No. 15-1, cis-1-[2-(1-adamantyl)ethyl]-1-pentyl-3-[2-(4-pyridyl)cyclopropylmethyl]urea]: 128 to 130 °C; for `CCCCCN(CCC12CC3CC(CC(C3)C1)C2)C(=O)NCCc1ccc(O)cc1`: 96.3 to 99.4 °C. Consider `S=C1N(CCCc2ccncc2)CCN1CCc1ccccc1` [Compound No. 8-1, 1-Phenethyl-3-[3-(4-pyridyl)propyl]-2-imidazolidinethione], for which the melting point was 99.5 to 104 °C. The same measure for `CCCCCN(CCC12CC3CC(CC(C3)C1)C2)C(=O)NCCCc1cc[n+](C)cc1.[I-]` [Compound No. 4-1, 4-[3-[3-[2-(1-Adamantyl)ethyl]-3-pentylureido]propyl]-1-methylpyridinium iodide]: 168 to 171 °C; for `CCN(CCCCC12CC3CC(CC(C3)C1)C2)C(=O)NCCCc1ccncc1` [Compound No. 1-124, 1-[4-(1-Adamantyl)butyl]-1-ethyl-3-[3-(4-pyridyl)propyl]urea]: 92.7 to 93.7 °C; for `CCCN(CCCCC12CC3CC(CC(C3)C1)C2)C(=O)NCCCc1ccncc1` [Compound No. 1-125, 1-[4-(1-Adamantyl)butyl]-1-propyl-3-[3-(4-pyridyl)propyl]urea]: 110 to 110.5 °C.

In turn, `OCCN(CCc1ccccc1)C(=S)NCCCc1ccncc1` [Compound No. 7-2, 1-(2-Hydroxyethyl)-1-phenethyl-3-[3-(4-pyridyl)propyl]thiourea] showed a melting point of 105.6 to 107.1 °C.

As to `CCCCCN(CCC12CC3CC(CC(C3)C1)C2)C(=O)NCc1ccncc1` [Compound No. 1-74, 1-[2-(1-Adamantyl)ethyl]-1-pentyl-3-(4-pyridyl)methylurea], the melting point was 96.5 to 108 °C.

As a reminder, the melting point is the temperature of the solid-liquid transition.
